What is called pEC50 is the EC50 on a negative log10 scale, so that one unit is a factor of ten. For orientation: pIC50 means the negative decadic logarithm of the IC50, by convention in mol/L.

pEC50, pIC50: −log10 of the molar value.

These results are taken from patent publication US6683077B2, “2-Amino-benzoxazinones for the treatment of viral infections” (G.D. Searle & Co., priority 1996, dated 2004).

Series [1] deals with human foreskin fibroblasts.
The test system of a further series is HCMV (strain AD169). Nature of the series: HCMV ELISA antiviral assay (viral antigen). Particulars: Human betaherpesvirus 5, Fibroblast; HCMV AD169 in human foreskin fibroblasts; value before the slash; unit inferred; read-out: Antiviral Activity Elisa, first value (EC50). It counts as cell-based, human cytomegalovirus. From the text: These complimentary assays tested the ability of a compound to inhibit the production of new virus and the toxicity of the compound to she host cells. It was important that both assays be performed simultaneously in order to compare the results directly since, toxicity may indirectly reduce viral yield.
Viral yield was estimated by measuring the amount of a viral antigen produced 4 days post infection with a monoclonal antibody to an abundant “immediate early” viral protein. An enzyme-linked (horseradish peroxidase) secondary antibody specific to the primary (mouse) antibody was urged to measure the amount of viral antigen. Test compounds were diluted to 2-times the desired final concentration in DMEM+5% FBS. One hundred microliters of this solution was placed in each well of a 96-well plate. This was performed once for the antiviral 96-well plate and again for a cytotoxicity plate. Two controls were also included for both plates; a no drug control and a no virus control. Ganciclovir was routinely tested in antiviral and cytotoxicity plates as a reference standard because it has known antiviral activity for HCMV. All cells were prepared by harvesting human foreskin fibroblasts, with trypsin and re-suspending at a concentration of 5×10^5 cells per ml in DMEM. Infected cells were prepared by infecting these with HCMV (strain AD169) at a multiplicity of infection=0.2. One hundred microliters of uninfected cells (5×10^4 cells) were added to the appropriate wells of the cytotoxicity plate. In a similar manner 100 μl of infected cells (5×10^4 cells) were added to the appropriate wells of the antiviral plate. Additionally, uninfected cells not treated with test compound were included as controls on the antiviral plate. Plates were incubated for 96 hours at 37° C. in 5% CO2 atmosphere and processed to measure the amount of viral antigen and toxicity.
The following was performed on the antiviral plate only. Media was removed and cells were fixed with 1:1 acetone:methanol for 15 minutes at −20° C. Fixative was removed and cells were washed once with PBS containing 0.05% Tween20. In order to block nonspecific binding of antibodies, each well was incubated with PBS containing 3% (w/v) bovine serum albumin (BSA) for 1 hour at 22° C. The blocking solution was removed and the cells were washed once with PBS containing 0.05% Tween20 before incubating with 1:100 dilution of primary antibody in PBS containing 3% BSA for 2 hours at 22° C. The primary antibody was a monoclonal antibody (mouse source) specific to the immediate early nuclear antigen of HCMV and was commercially available (Dupont). The 1° antibody solution was removed and the plate was rinsed 5 times with PBS containing 1% (v/v) Triton X-100 (PBST) before incubating with secondary antibody diluted 1:1000 in PBS containing 3% BSA for 2 hours at 22° C. The secondary antibody (goat source) recognized the murine-specific determinants of the 1° antibody and was covalently linked to horseradish peroxidase (Sigma). The plate was rinsed 5 times with PBST and once with deionized water before adding 100 μl TMB substrate solution and incubating 30 minutes at 22° C. The reaction was stopped by adding 100 μL of phosphoric acid and the OD at 450 nm recorded. TMB (3,3′,5,5′ tetramethylbenzidine) was the substrate for the horseradish peroxidase linked to the 2° antibody. It was made from a commercially available kit (Kirkegaard & Perry Laboratories, Inc.). Antiviral activity was calculated by comparing the amount of viral antigen produced in drug treated wells with that produced in wells absent of drug.

In series [2] the test system is HCMV engineered virus RC256. Briefly: microbe, parasite or virus in culture. Conditions: Human betaherpesvirus 5, Fibroblast, read-out: Antiviral Activity RC256, first value (EC50). It counts as cell-based, human cytomegalovirus.
The target of series [3] is HCMV protease (assemblin) (Human cytomegalovirus, UniProt P16753). Briefly: Enzymatic assay for HCMV protease (assemblin) inhibitors. It counts as biochemical.
Series [4] deals with T1, Bovine pancreas α-chymotrypsin (Bos taurus, UniProt P00766, DEL14-15/DEL147-148).
T1 construct: Bovine pancreas α-chymotrypsin (type II, Sigma); purchased Sigma type II; host or cells: bovine pancreas
Nature of the series: Chymotrypsin assay. The series is classed as biochemical. As to the method:
The chymotrypsin assay was modified from the method of Delmar et al [Anal. Biochem., 99, 316-320 (1979)]. Bovine pancreas α-chymotrypsin (type II, Sigma) was dissolved in 0.001 N HCl at 1 mg/ml and further diluted 1/600 in assay buffer (0.1 M Tris, pH 7.8, containing 0.1 M CaCl2) before use. 20 μl of test compound in DMSO (or DMSO alone), 100 μl of assay buffer and 30 μl of enzyme were added to […], mixed and pre-incubated for 30 minutes at ambient temperature. Reaction was initiated by addition of 50 Al of 0.2 mM N-succinyl-Ala-Ala-Pro-Phe-p-nitroanilide (Sigma; 2 mM in DMSO diluted 1/10 in assay buffer before use). The increase in absorbance at 405 nm was monitored for 10 minutes with a Biotek EL340 plate reader.

The target of series [5] is T2, Human leukocyte elastase (HLE) (Homo sapiens, UniProt P08246).
T2 construct: gift of R. Senior, Washington University
T2 sequence (P08246 30-267): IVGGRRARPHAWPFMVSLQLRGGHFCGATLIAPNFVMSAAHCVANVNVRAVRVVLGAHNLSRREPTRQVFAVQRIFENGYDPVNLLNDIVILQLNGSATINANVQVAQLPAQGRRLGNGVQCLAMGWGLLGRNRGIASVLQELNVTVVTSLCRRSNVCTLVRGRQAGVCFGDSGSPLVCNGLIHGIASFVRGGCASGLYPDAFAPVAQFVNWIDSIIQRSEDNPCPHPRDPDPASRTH
Briefly: Human leukocyte elastase assay. It counts as biochemical. Conditions: @ 100 (concentration unit not given). Summed up:
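HLE in 0.2 M Tris, pH 8.0, was preincubated 30 minutes at ambient temperature with compound in DMSO. The reaction was started with methoxysuccinyl-Ala-Ala-Pro-Val-p-nitroanilide (2.5 mM added solution), and absorbance increase at 405 nm was monitored for 10 minutes.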

Chain of HCMV protease (assemblin) (P16753 1-256): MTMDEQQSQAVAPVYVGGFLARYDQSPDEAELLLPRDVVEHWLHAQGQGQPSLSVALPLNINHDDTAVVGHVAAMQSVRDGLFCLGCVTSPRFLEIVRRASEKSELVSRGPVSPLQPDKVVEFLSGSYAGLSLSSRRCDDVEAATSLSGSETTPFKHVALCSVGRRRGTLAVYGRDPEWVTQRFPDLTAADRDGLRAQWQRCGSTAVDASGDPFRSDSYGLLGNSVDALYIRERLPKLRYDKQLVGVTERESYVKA

For the compound “3,5-Diiodo-N-(5-methyl-(3,5-diiodo)2-yl)-L-tyrosine, methyl ester [Example 1q]”, in series [1], the “Antiviral Activity RC256, second value (cytotoxicity)” value came to 70.

Turning to `Cc1cccc2nc(N[C@@H](C)c3ccccc3)oc(=O)c12` [Example 3b, 5-Methyl-2-[[(1S)-1-phenylethyl]amino]-4H-3,1-benzoxazin-4-one], the pEC50 with HCMV (strain AD169) was 4.57. `COc1ccc(C[C@H](Nc2nc3ccc(NC(=O)Oc4ccccc4)c(C)c3c(=O)o2)C(=O)N(C)Cc2ccccc2)cc1` [Example 11q, Phenyl[2-[[1S-[(4-methoxyphenyl)methyl]-2-[methyl(phenylmethyl)amino]-2-oxcethyl]amino]-5-methyl-4H-3,1-benzoxazin-6-yl]carbamate]: in series [2], the pEC50 was 4.74. For the same compound, the pIC50 in series [3] was 6.22; in series [4], 5.62. Take “1,1-Dimethylethyl[2-[[1S-[(4-methoxyphenyl)methyl]-2-oxo-2-[[2-(2-pyridinyl)ethyl]amino]ethyl]amino]-5-methyl-4-oxo-4H-3,1-benzoxazin-6-yl]carbamate [Example 6hh]”: the “Antiviral Activity RC256, second value (cytotoxicity)” value in series [1] is on record as 60. The “Chymotrypsin, % @ concentration” value in series [4] (@ 10 (concentration unit not given)) worked out at 21% @ 10. `COCC(=O)Nc1ccc2nc(N[C@@H](Cc3ccccc3)C(=O)OC)oc(=O)c2c1C` [Example 11c, N-[6-[[(Methoxymethyl)carbonyl]amino]-5-methyl-4-oxo-4H-3,1-benzoxazin-2-yl]-L-phenylalanine, methyl ester]: the pEC50 in the series with HCMV (strain AD169) was 4.11. Besides, in series [5], the “HLE, % @ concentration” value is given as 83% @ 100. Consider `COC(=O)[C@H](C)Nc1nc2cccc(C)c2c(=O)o1` [Example 1b, N-(5-Methyl-4-oxo-4H-3,1-benzoxazin-2-yl)-L-alanine, methyl ester], for which the pEC50 in the series on HCMV (strain AD169) was 4.14.

`Cc1c(NC(=O)CN(C)C)ccc2nc(N[C@@H](C)c3ccccc3)oc(=O)c12` [Example 11m, 5-Methyl-6-[[(dimethylaminomethyl)carbonyl]amino]-2-[[(1S)-phenylethyl]amino]-4H-3,1-benzoxazin-4-one]: the “Assemblin Protease, % @ concentration” value in series [3] (@ 1 (concentration unit not given)) is on record as 67% @ 1.0. In the series on HCMV (strain AD169), the pEC50 is 4.06. In addition, the “HLE, % @ concentration” value in series [5] was found to be 37% @ 100.
